# Test results as given in article PMC10058894, “Bioactive C21 Steroidal Glycosides from Euphorbia kansui Promoted HepG2 Cell Apoptosis via the Degradation of ATP1A1 and Inhibited Macrophage Polarization under Co-Cultivation” (Molecules, 2023).
# Key:
# [1] = system: HepG2 cells; assay: MTT assay, cell viability of HepG2 cells; type: cell-based; conditions: Homo sapiens, HepG2, 48 h
# Protocol: (§1) HepG2 cells (1 × 10^4 cells/well) or RAW264.7 cells ([…]) were incubated in 96T wells for 24 h. Then, HepG2 cells were treated with compounds or Adriamycin for 48 h. In addition, RAW264.7 cells were treated with compounds for 24 h. Then, 0.5% MTT (Sigma, Saint Louis, MO, USA) was added to 20 μL/well for 3.5 h. The supernatant was discarded, and DMSO (150 μL/well) was added to dissolve the purple formazan. Cells were agitated for 15 min at room temperature, and the absorbance at 490 nm was recorded by SpetraMax M2 (Molecular Devices, San Jose, CA, USA).
# [2] = MTT assay, cell viability of RAW264.7 cells; type: cell-based; conditions: mouse, half inhibitory of RAW264.7 cells
# Protocol: as §1
# RAW264.7 cells (8 × 10^4 cells/well) were incubated in 96T wells with DMEM for 24 h and then treated with compounds and LPS (1 μg/mL) for 24 h; this included the control group and LPS group. Then, the cell supernatant was collected for nitric oxide production assay. Next, 100 uL/well PBS was added to 96T wells, then 0.5% MTT (Sigma, Saint Louis, MO, USA) was added to 20 μL/well for 3.5 h. DMSO (150 μL/well) was added to dissolve the purple formazan. Cells were agitated for 15 min at room temperature, and the absorbance at 490 nm was recorded by SpetraMax M2 (Molecular Devices, San Jose, CA, USA). The NO inhibition rate (%) = (ODLPS group − ODcompound group)/(ODLPS group-ODcontrol group) × 100%. The IC50 value refers to the inhibitory of nitric oxide production of LPS-stimulated RAW264.7 cells. Then, 70 uL of each cell supernatant sample was added into a new 96T plate, and Griess A and Griess B were added separately. Then, the absorbance value at 540 nm was detected and then brought into the standard curve to assay the concentration of NO. The cell survival rate (%) = (ODcompound group − ODblank group)/(ODcontrol group − ODblank group) × 100%. The half concentration of the cell death (CC50) value refers to the concentration of compound 5 when 50% of RAW264.7 cells die. The iNOS inhibitor ([…], L-NMMA) was selected as the positive control. The levels of cytokines (IL-1β, IFN-γ, IL-10, TNF-α, and IL-6) in the cell supernatant were determined using an ELISA kit (Novus Biologicals, Shanghai, China, Lot: 834472, 770118, 772051, 486956, 602865). When the process was conducted according to the manufacturer’s instructions, the absorbance was read at 450 nm/570 nm in a SpectraMax 340PC microplate spectrophotometer (Molecular Devices, San Jose, CA, USA).
# [3] = CETSA binding assay; conditions: 50 μmoL−1, western blot
# Protocol: Figure 4 Compound 5 promoted the endocytosis and degradation of ATP1A1. (A) HepG2 cells were treated with 12.5 μmol∙L^−1 or 25 μmol∙L^−1 5 for 48 h, and the lysosomal co-localization assay was performed with a confocal laser. (B) Cells exposed to 25 μmol∙L^−1 5 for 12 h or 24 h were detected by fluorescence staining. (C) 5 is depicted in red, and the chains of Na^+, K^+-ATPase α/β/γ are represented by light blue, cyan-blue, and magenta, respectively. The crystallography, atomic coordinates, and structure factors have been deposited in the Protein Data Bank, www.pdb.org (accessed on 1 February 2023) (PDB ID code 3KDP). (D) The CETSA binding assay of ATP1A1 and β-actin in the presence or absence of 5 (50 μmoL^−1) at different temperatures was detected by western blot. The temperature-dependent melting curves and the apparent aggregation temperature were calculated by nonlinear regression. Values represent the mean ± SEM (N = 3 replicates).
# [4] = system: ATP1A1-related AKT and ERK signaling pathways; assay: Western blot of AKT and ERK phosphorylation in HepG2 cells; type: cell-based; conditions: 5 at 25 μmol∙L−1, 0~60 min, digitonin 10 nmol∙L−1
# Protocol: An Na^+/K^+-ATPase inhibitor (digitonin), AKT inhibitor (MK 2206), and ERK inhibitor (FR 180204) were purchased from Biotech (Beijing, China). These agents were stored at −20 °C, and the cells were preincubated with the inhibitor for 4 h prior to treatment with the compounds. Digitonin, MK 2206, and FR 180204 were used at concentrations of 10, 40, and 200 nmol/L, respectively.
# (§2) Protein samples were prepared using a RIPA lysis buffer. The concentration of the protein was analyzed using a nucleic acid and protein microanalyzer (Molecular Devices, San Jose, CA, USA). SDS–PAGE was performed to separate the proteins, which were then electrotransferred onto a PVDF membrane. The membrane was incubated with antibodies at 4 °C overnight. Next, the membrane was washed and incubated with an HRP-conjugated secondary antibody (Beyotime, BeiJing, China). Finally, signals were detected by the ECL method (Beyotime, BeiJing, China) and analyzed using ImageJ software.
# [5] = system: HepG2 and RAW264.7 co-cultivation; assay: Cytokine levels by ELISA in co-cultivation; type: cell-based; conditions: 25 μmol∙L−1, 48 h
# [6] = molecular target: ATP1A1 (Homo sapiens, UniProt P05023); assay: ATP1A1 level and location in HepG2 cells (western blot, fluorescence staining, lysosomal colocalization); type: cell-based; parameters: we focused on the regulatory effect of 5 on ATP1A1 in HepG2 cells; endogenous in cells; host or cells: HepG2
# Protocol: HepG2 cells (4 × 10^5 cells/well) were incubated in confocal dishes with DMEM for 24 h and then treated with compounds for 48 h. Then, the cells were treated with 0.1% Triton X-100 for 10 min and washed with PBS five times. Finally, the cells were dyed with anti-ATP1A1 at 4 °C overnight. Nuclear staining with DAPI (1 μg∙mL^−1) was added for 7 min in the dark, and the cells were washed. The stained images were captured under a laser scanning confocal microscope (Nikon A1 AIR MP+, Tokyo, Japan). HepG2 cells (5 × 10^5 cells/well) were incubated in 6-well plates in complete DMEM. Cells were treated with compounds for 24 h. Then, the cells were stained with Annexin V/PI for 30 min at 4 °C in the dark, and apoptosis analysis was carried out by laser scanning confocal microscopy.
# as §2
compound,measurement,setting,value
"C[C@H](O)[C@]1(O)CC[C@@]2(O)[C@]1(C)[C@H](OC(=O)/C=C/c1ccccc1)C[C@@H]1[C@@]3(C)CC[C@H](O[C@H]4C[C@H](O)[C@H](O)[C@@H](C)O4)CC3=CC[C@]12O [Compound 5, Cynsaccatol L]",IC50,[1],12.6 ± 2.13 µM
same,CC50 at 24 h,[2],30.1 ± 3.14 µM
same,denaturation temperature of β-actin (CETSA),[3],did not change
same,phosphorylation of AKT and ERK and expression of ATP1A1,[4],all decreased
same,levels of TNF-α and IFN-γ,"[5]; vs C0, C1 and C2 groups",significantly upregulate
same,levels of IL-6 and IL-10,[5]; vs C0 group,decreased significantly
same,endocytosis of ATP1A1 protein (lysosomal colocalization assay),"[6]; HepG2, 12.5 or 25 μmol∙L−1 for 48 h, 25 μmol∙L−1 for 12 h or 24 h",induce the endocytosis of the ATP1A1 protein
same,expression of ATP1A1 (comparison with inhibitors),"[6]; HepG2, 5 25 μmol∙L−1, digitonin 10, MK 2206 40, FR 180204 200 nmol∙L−1, western blot",decreased
same,green fluorescence intensity of ATP1A1 on the cell membrane,"[6]; HepG2 cells, fluorescence staining",significantly reduced in a dose-dependent manner
same,level of ATP1A1,"[6]; HepG2 cells, western blot",significantly reduced
